Drawing on patent publication US20260226025A1, “PHARMACEUTICALLY ACCEPTABLE SALT AND CRYSTAL FORM OF TRIAZOLE COMPOUND, AND PREPARATION METHOD THEREFOR” (JIANGSU HENGRUI PHARMACEUTICALS CO., LTD., priority 2023, published 2026), this text covers IC50 for one compound.

The term IC50 denotes the concentration needed to halve the response being measured.

The assay deals with T1, hLPAR1 (human lysophosphatidic acid receptor 1) (Homo sapiens, UniProt Q92633).
T1 construct: host or cells: CHO-K1 (CHO-K1/LPA1R, cultured under hygromycin B selection)
The experiment in a line: FLIPR antagonist property test: LPA-induced intracellular calcium elevation in CHO-K1/LPA1R cells. It counts as cell-based. The following applies: hLPAR1 expressed in CHO-K1 cells, LPA at EC80, read-out: LPAR1 IC50. Here is the method: The antagonist properties of a compound of the present disclosure were assessed using the FLIPR (fluorometric imaging plate reader) method. The compound is an inhibitor of intracellular calcium elevation induced by activation of hLPAR1 (human lysophosphatidic acid receptor 1) expressed in CHO-K1 cells (Chinese hamster ovary K1 cells, HDB). • 1. Experimental reagents and instrument consumables
• 2. Reagent preparation • 2.1. Reaction buffer: HBSS+20 mM HEPES+0.1% fatty acid-free BSA+0.001% F-127 • 2.2. 50× Red dye: (a red dye for blocking background signals in cells) prepared by: weighing out 4 g of tartrazine and 10.2 g of acid red and dissolving them in 100 mL of H2O. • 2.3. Fluo-8 staining mixture: 4 mL of reaction buffer, 32 μL of fluo-8, 320 μL of 50× Red dye, and 40 μL of probenecid. • 3. Compound preparation • 3.1. […] When the cells became round, the digestion was stopped with culture medium F-12 (10% FBS), and the cells were counted. […] An FLIPR was correspondingly programmed, the 6×LPA gradient solutions were added, and readings were taken. […] A reaction curve was obtained from the numerical values of LPA, and the concentration of LPA at EC80 was calculated. […] An FLIPR was correspondingly programmed, the 6×LPA solution was added, and readings were taken. […] Finally, the output fluorescence counts were analyzed, and the IC50 of the compound was calculated. • 5. […]
(Calcium assays in cells follow changes in intracellular calcium, usually with a dye or a luminescent sensor.)

T1 sequence (Q92633 whole entry): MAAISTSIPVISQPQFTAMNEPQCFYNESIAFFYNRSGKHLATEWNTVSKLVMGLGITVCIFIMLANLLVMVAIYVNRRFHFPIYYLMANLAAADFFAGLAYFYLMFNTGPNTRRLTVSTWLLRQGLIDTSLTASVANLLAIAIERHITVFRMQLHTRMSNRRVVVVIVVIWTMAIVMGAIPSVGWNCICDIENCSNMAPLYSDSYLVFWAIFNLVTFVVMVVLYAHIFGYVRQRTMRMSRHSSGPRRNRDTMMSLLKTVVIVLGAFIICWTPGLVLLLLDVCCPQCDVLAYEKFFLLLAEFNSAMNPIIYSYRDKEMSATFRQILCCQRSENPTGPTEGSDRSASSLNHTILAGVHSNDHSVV

With `COCc1ccnc(OCc2c(-c3ccc(O[C@H]4C[C@@H]5CC[C@H](C(=O)O)[C@@H]5C4)c(C)n3)nnn2C)n1` [Compound 1-P1, (1S,3aS,5S,6aR)-5-((6-(5-(((4-(methoxymethyl)pyrimidin-2-yl)oxy)methyl)-1-methyl-1H-1,2,3-triazol-4-yl)-2-methylpyridin-3-yl)oxy) octahydropentalene-1-carboxylic acid], the concentration for half-maximal inhibition (IC50) was determined as 8.7 nM.
